Data as given in patent publication US20100009970A1, “COMPOSITIONS AND METHODS FOR TREATMENT OF VIRAL DISEASES” (Combinatorx (Singapore) Pte. Ltd., priority 2008, published 2010).
Read-outs that look alike come from different tables or passages of the source.

What was measured:
in vitro = conditions: human
[1] = tested on: Huh7 cells expressing a subgenomic RNA replicon of Con1 (genotype 1b) sequence origin; assay: microbe, parasite or virus in culture; conditions: Hepatitis C virus
[2] = Huh-7, read-out: IC50 (uM) [SG]
[3] = Huh-7, read-out: Max Effect@CC30 (inhibition)
[4] = Huh-7, read-out: Max effect @CC30 (%)
[5] = Huh-7, read-out: Max Effect @CC30 (inhibition)

Structure (SMILES) | CC50 (in vitro; CC50 (uM) [SG]) [µM] | IC50 [1, 2] [µM] | Emax [1, 3] [%] | further results
CN[C@H]1CC[C@@H](c2ccc(Cl)c(Cl)c2)c2ccc(C(N)=S)cc21 [Sertraline A-Ring Thiocarboxamide, (5S,8S)-5-(3,4-dichlorophenyl)-8-(methylamino)-5,6,7,8-tetrahydronaphthalene-2-carbothioamide] | 13.2 | 7.19 |  | 
CNc1ccc(Oc2ccc(SC)c(C)c2)c(CN(C)C)c1 [Compound 25, 3-((dimethylamino)methyl)-N-methyl-4-(3-methyl-4-(methylthio)phenoxy)aniline] | 46.9 | 20 |  | 
CSc1ccc(Oc2ccc(S(N)(=O)=O)cc2CNC[C@@H](C)O)cc1C [Compound 68, (R)-3-((2-hydroxypropylamino)methyl)-4-(3-methyl-4-(methylthio)phenoxy)benzenesulfonamide] | > 50 | 4.34 |  | IC90 ([1]; Huh-7): 15.3 µM
CN(C)[C@H]1CC[C@@H](c2ccc(Cl)c(Cl)c2)c2ccc(NC(=O)c3ccccc3)cc21 [N-((5S,8S)-5-(3,4-dichlorophenyl)-8-(dimethylamino)-5,6,7,8-tetrahydronaphthalen-2-yl)benzamide] | 12.5 | 9.41 |  | 
CSc1ccc(Oc2ccc(S(N)(=O)=O)cc2CN2CCC[C@H]2CO)cc1C [Compound 103, (S)-3-((2-(hydroxymethyl)pyrrolidin-1-yl)methyl)-4-(3-methyl-4-(methylthio)phenoxy)benzenesulfonamide] | > 50 | 6.88 |  | IC90 ([1]; Huh-7): 17.6 µM
CSc1cc(S(N)(=O)=O)c(Oc2cc(Br)ccc2CN(C)C)cc1C [Compound 72, 2-(5-bromo-2-((dimethylamino)methyl)phenoxy)-4-methyl-5-(methylthio)benzenesulfonamide] | 45 | 16.3 |  | 
CN[C@H]1CC[C@@H](c2ccc(Cl)c(Cl)c2)c2ccc(CS(=O)(=O)c3ccccc3)cc21 [(1S,4S)-4-(3,4-dichlorophenyl)-N-methyl-7-(phenylsulfonylmethyl)-1,2,3,4-tetrahydronaphthalen-1-amine] | 6.7 | 6.24 |  | 
CSc1ccc(Oc2ccc(CNS(C)(=O)=O)cc2CN(C)C)cc1C [Compound 17, N-(3-((dimethylamino)methyl)-4-(3-methyl-4-(methylthio)phenoxy)benzyl)methanesulfonamide] | > 50 | 22.7 |  | 
CSc1ccc(Oc2ccc(S(N)(=O)=O)cc2CN2CCN(C)CC2)cc1C [Compound 63, 4-(3-methyl-4-(methylthio)phenoxy)-3-((4-methylpiperazine-1-yl)methyl)benzenesulfonamide] | > 50 | 4.82 |  | IC90 ([1]; Huh-7): 10.5 µM
COc1ccc(NS(=O)(=O)c2ccc(Oc3ccc(SC)c(C)c3)c(CN(C)C)c2)cc1 [Compound 59, 3-((dimethylamino)methyl)-N-(4-methoxyphenyl)-4-(3-methyl-4-(methylthio)phenoxy)benzenesulfonamide] | 8.32 | 6.39 |  | 
CC(=O)Nc1ccc2c(c1)[C@@H](N(C)CCO)CC[C@H]2c1ccc(Cl)c(Cl)c1 [N-((5S,8S)-5-(3,4-dichlorophenyl)-8-((2-hydroxyethyl)(methyl)amino)-5,6,7,8-tetrahydronaphthalen-2-yl)acetamide] | 44.9 | 13.2 |  | 
CNC1CCC(c2ccc(Cl)c(Cl)c2)c2ccsc21 (centres unmarked) [Sertraline A-ring Thiophene] | 18.8 ± 0.93 | 8.27 ± 0.46 | 80.8 ± 2.55 | Emax [1, 4]: 80.8 ± 2.55%; IC50 ([1]; Huh-7, read-out: SA IC50 (uM)): 8.27 ± 0.46 µM
CN[C@H]1CC[C@@H](c2ccc(Cl)c(Cl)c2)c2ccc(NC(C)=O)cc21 [Sertraline A-Ring Reverse Carboxamide, N-((5S,8S)-5-(3,4-dichlorophenyl)-8-(methylamino)-5,6,7,8-tetrahydronaphthalen-2-yl)acetamide] | 12 ± 1.77 | 0.91 ± 0.08 | 83 ± 6.55 | CC50 (in vitro; CC50 (uM)): 10.7 µM; IC50 ([1]; Huh-7): 0.85 µM; IC90 ([1]; Huh-7): 7.26 µM; Emax [1, 5]: 87.7%; Emax [1, 4]: 83 ± 6.55%; IC50 ([1]; Huh-7, read-out: SA IC50 (uM)): 0.91 ± 0.08 µM
CSc1ccc(Oc2ccc(S(N)(=O)=O)cc2CNCCCN(C)C)cc1C [Compound 79, 3-((3-(dimethylamino)propylamino)methyl)-4-(3-methyl-4-(methylthio)phenoxy)benzenesulfonamide] | 17.8 | 3.44 |  | IC90 ([1]; Huh-7): 9.66 µM
CNC(=O)c1cc(S(N)(=O)=O)ccc1Oc1ccc(SC)c(C)c1 [Compound 45, N-methyl-2-(3-methyl-4-(methylthio)phenoxy)-5-sulfamoylbenzamide] |  |  | 10.3 | CC50 (in vitro; CC50 (uM)): > 50 µM
CSc1ccc(Oc2ccc(S(N)(=O)=O)cc2CN2CCN(c3ccccc3F)CC2)cc1C [Compound 87, 3-((4-(2-fluorophenyl)piperazin-1-yl)methyl)-4-(3-methyl-4-(methylthio)phenoxy)benzenesulfonamide] | 30.2 | 23.5 |  | 

Structure (SMILES) | CC50 (in vitro; CC50 (uM) [SG]) [µM] | IC50 [1, 2] [µM] | Emax [1, 3] [%] | further results
CNCc1cc(Br)ccc1Oc1ccc(SC)c(C)c1 [Compound 31, (5-bromo-2-(3-methyl-4-(methylthio)phenoxy)phenyl)-N-methylmethanamine] | 13.5 | 7.51 | 18 | 
CN[C@H]1CC[C@@H](c2ccc(Cl)c(Cl)c2)c2ccc(C(=O)NC3CC3)cc21 [(5S,8S)—N-cyclopropyl-5-(3,4-dichlorophenyl)-8-(methylamino)-5,6,7,8-tetrahydronaphthalene-2-carboxamide] | 8.87 | 2.75 | 88 | 
CSc1ccc(N(C)c2ccc(Br)cc2CN(C)C)cc1C [Compound 98, 4-Bromo-2-((dimethylamino)methyl)-N-methyl-N-(3-methyl-4-(methylthio)phenyl)aniline] | > 50 | 25 |  | IC90 ([1]; Huh-7): 26.8 µM
CSc1ccc(Oc2ccc(S(=O)(=O)NCc3ccccc3)cc2CN(C)C)cc1C [Compound 14, N-benzyl-3-((dimethylamino)methyl)-4-(3-methyl-4-(methylthio)phenoxy)benzenesulfonamide] | 16.9 | 11.4 | 59 | 
CC(C)C1CC[C@@H](c2ccc(Cl)c(Cl)c2)c2ccc(C(N)=O)cc21 (stereo partly drawn) [Isopropyl Sertraline A-Ring Carboxamide, (S)-5-(3,4-dichlorophenyl)-8-isopropyl-5,6,7,8-tetrahydronaphthalene-2-carboxamide] | > 50 | 38.9 |  | 
CCCCC(=O)Nc1ccc2c(c1)[C@@H](NC)CC[C@H]2c1ccc(Cl)c(Cl)c1 [Sertraline A-Ring Reverse Pentanamide, N-((5S,8S)-5-(3,4-dichlorophenyl)-8-(methylamino)-5,6,7,8-tetrahydronaphthalen-2-yl)pentanamide] | 4.32 | 3.67 | 33.1 | CC50 (in vitro; CC50 (uM)): 4.32 µM; IC50 ([1]; Huh-7): 3.68 µM; IC90 ([1]; Huh-7): 5.03 µM; Emax [1, 5]: 33.1%
CSc1ccc(Oc2ccc(S(N)(=O)=O)cc2CN2CCN(CCO)CC2)cc1C [Compound 95, 3-((4-(2-hydroxyethyl)piperazin-1-yl)methyl)-4-(3-methyl-4-(methylthio)phenoxy)benzenesulfonamide] | > 50 | 6.5 |  | IC90 ([1]; Huh-7): 17 µM
CSc1ccc(Oc2ccc(S(N)(=O)=O)cc2CN2CCN(c3ccc(Cl)cc3)CC2)cc1C [Compound 92, 3-((4-(4-chlorophenyl)piperazin-1-yl)methyl)-4-(3-methyl-4-(methylthio)phenoxy)benzenesulfonamide] | 44.4 | 30 |  | 
CC(C)C1=CC[C@@H](c2ccc(Cl)c(Cl)c2)c2ccc(C(N)=O)cc21 [(S)-5-(3,4-dichlorophenyl)-8-isopropyl-5,6-dihydronaphthalene-2-carboxamide] | > 50 | 21.5 |  | 
CN[C@H]1CC[C@@H](c2ccc(Cl)c(Cl)c2)c2ccc(C(=O)Nc3ccccn3)cc21 [Sertraline A-ring Pyridine Carboxamide, (5S,8S)-5-(3,4-dichlorophenyl)-8-(methylamino)-N-(pyridin-2-yl)-5,6,7,8-tetrahydronaphthalene-2-carboxamide] | 7.05 | 4.43 | 61.3 | 
CSc1ccc(Oc2ccc(S(N)(=O)=O)cc2CN2CC[C@H](F)C2)cc1C [Compound 85, (S)-3-((3-fluoropyrrolidin-1-yl)methyl)-4-(3-methyl-4-(methylthio)phenoxy)benzenesulfonamide] | > 50 | 7.22 |  | 
CNC(=O)c1ccc2c(c1)[C@@H](NC)CC[C@H]2c1ccc(Cl)c(Cl)c1 [Sertraline A-Ring Methyl Carboxamide, (5S,8S)-5-(3,4-dichlorophenyl)-N-methyl-8-(methylamino)-5,6,7,8-tetrahydronaphthalene-2-carboxamide] | 11.1 | 2.82 | 81.2 | 
CNCc1cc(S(N)(=O)=O)ccc1Oc1ccc(C)c(C)c1 [Compound 84, 4-(3,4-dimethylphenoxy)-3-((methylamino)methyl)benzenesulfonamide] | 46.7 | 28.1 |  | IC90 ([1]; Huh-7): 39.6 µM
CNCc1cc(Br)ccc1Oc1cccc(OC)c1 [Compound 37, (5-bromo-2-(3-methoxyphenoxy)phenyl)-N-methylmethanamine] | 46.9 | 27.7 | 12.4 | 
CSc1ccc(Oc2cc(Br)ccc2CN(C)C)cc1C [Compound 60, 1-(4-bromo-2-(3-methyl-4-(methylthio)phenoxy)phenyl)-N,N-dimethylmethanamine] | 28.7 | 12.6 |  | 
CCCCS(=O)(=O)Nc1ccc2c(c1)[C@@H](NC)CC[C@H]2c1ccc(Cl)c(Cl)c1 [N-((5S,8S)-5-(3,4-dichlorophenyl)-8-(methylamino)-5,6,7,8-tetrahydronaphthalen-2-yl)butane-1-sulfonamide] | 3.63 | 6.07 |  | 
